# Source: patent publication US12708116B2, “Herbicidal compositions comprising 2,4-D” (BASF SE, priority 2023, dated 2026)
# Legend:
# Assay in all cases: Post-emergence application in field trials
# AMARE = format: in vivo, Amaranthus retroflexus; settings: 8 DAT; g ai/ha A-1 25, B-5 1066; growth stage 19; height 10-20 cm; water volume 140 l/ha
# AMATU = format: in vivo, Amaranthus tuberculatos; settings: 8 DAT; g ai/ha A-1 12.5, B-5 1066; growth stage 19; height 10-20 cm; water volume 140 l/ha
# PORPI = format: in vivo; settings: 8 DAT; g ai/ha A-1 25, B-5 1066; height 2-8 cm; water volume 140 l/ha
# ECHCG = format: in vivo, Echinochloa crus-galli
# SETVI = format: in vivo, Setaria viridis; settings: 15 DAT; g ai/ha A-1 12.5, B-5 1066, C-10 840; growth stage 13-19; height 2-18 cm; water volume 140 l/ha
# GLXMA = format: in vivo, Glycine max; settings: Example 4; 21 DAT; g ai/ha A-1 12.5, B-5 1066; growth stage 13; height 5-8 cm
# AMAPA = system: AMAPA
# DIGSA = system: DIGSA
# CYPES = settings: 21 DAT, water volume 140 l/ha
# DATST = system: DATST
# ZEAMX = settings: growth stage 15-16
# SETVE = settings: growth stage 21-23
# HORVW = settings: growth stage 23-29, height 20-25 cm
structure (smiles),measurement,setting,value
"CCOC(=O)COc1ccccc1Oc1nc(-n2c(=O)cc(C(F)(F)F)n(C)c2=O)c(F)cc1Cl [A-1, ethyl 2-[2-[[3-chloro-5-fluoro-6-[3-methyl-2,6-dioxo-4-(trifluoromethyl)pyrimidin-1-yl]-2-pyridyl]oxy]phenoxy]acetate]",% Herbicidal activity,AMARE,88%
same,% Herbicidal activity,AMATU,88%
same,% Herbicidal activity,PORPI,90%
same,% Herbicidal activity,"ECHCG; 13 DAT, g ai/ha A-1 12.5, B-5 1066, C-10 840, growth stage 21-26, height 15-30 cm, water volume 187 l/ha",23%
same,% Herbicidal activity,"ECHCG; 13 DAT, g ai/ha A-1 25, B-5 1066, C-10 840, growth stage 21-26, height 15-30 cm, water volume 187 l/ha",20%
same,% Herbicidal activity,"ECHCG; 13 DAT, g ai/ha A-1 50, B-5 1066, C-10 840, growth stage 21-26, height 15-30 cm, water volume 187 l/ha",23%
same,% Herbicidal activity,"ECHCG; Example 4, 21 DAT, g ai/ha A-1 12.5, B-5 1066, growth stage 23-30, height 15-20 cm",30%
same,% Herbicidal activity,"ECHCG; Example 6, 7 DAT, g ai/ha A-1 12.5, B-5 1066, C-11 400, growth stage 23-30, height 15-20 cm",20%
same,% Herbicidal activity,"ECHCG; Example 6, 28 DAT, g ai/ha A-1 12.5, B-5 1066, C-11 400, growth stage 23-30, height 15-20 cm",20%
same,% Herbicidal activity,"ECHCG; Example 7, 28 DAT, g ai/ha A-1 12.5, B-4 1066, C-11 400, growth stage 23-30, height 15-20 cm",20%
same,% Herbicidal activity,"ECHCG; Example 8, 7 DAT, g ai/ha A-1 12.5, B-5 1066, C-12 252, growth stage 23-30, height 15-20 cm",20%
same,% Herbicidal activity,"ECHCG; Example 8, 21 DAT, g ai/ha A-1 12.5, B-5 1066, C-12 252, growth stage 23-30, height 15-20 cm",30%
same,% Herbicidal activity,"ECHCG; Example 8, 28 DAT, g ai/ha A-1 12.5, B-5 1066, C-12 252, growth stage 23-30, height 15-20 cm",20%
same,% Herbicidal activity,"ECHCG; Example 9, 28 DAT, g ai/ha A-1 12.5, B-4 1066, C-12 252, growth stage 23-30, height 15-20 cm",20%
same,% Herbicidal activity,"ECHCG; Example 10, 21 DAT, g ai/ha A-1 12.5, B-5 1066, C-4 12.5, growth stage 23-30, height 15-20 cm",30%
same,% Herbicidal activity,SETVI,68%
same,% Herbicidal activity,GLXMA,90%
same,% Herbicidal activity,"AMAPA; 13 DAT, g ai/ha A-1 25, B-5 1066, growth stage 16, height 15-25 cm, water volume 187 l/ha",58%
same,% Herbicidal activity,"AMAPA; 14 DAT, g ai/ha A-1 12.5, B-5 1066, C-10 840, growth stage 12-24, height 5-30 cm, water volume 140 l/ha",73%
same,% Herbicidal activity,"AMAPA; 14 DAT, g ai/ha A-1 25, B-5 1066, C-10 840, growth stage 12-24, height 5-30 cm, water volume 140 l/ha",82%
same,% Herbicidal activity,"AMAPA; 19 DAT, g ai/ha A-1 12.5, B-5 1066, growth stage 16, height 15-25 cm, water volume 187 l/ha",40%
same,% Herbicidal activity,"AMAPA; 19 DAT, g ai/ha A-1 25, B-5 1066, growth stage 16, height 15-25 cm, water volume 187 l/ha",42%
same,% Herbicidal activity,"AMAPA; 19 DAT, g ai/ha A-1 50, B-5 1066, growth stage 16, height 15-25 cm, water volume 187 l/ha",52%
same,% Herbicidal activity,"AMAPA; 21 DAT, g ai/ha A-1 12.5, B-5 1066, growth stage 12-28, height 7-20 cm, water volume 140 l/ha",89%
same,% Herbicidal activity,"AMAPA; 21 DAT, g ai/ha A-1 50, B-5 1066, height 5-23 cm, water volume 140 l/ha",74%
same,% Herbicidal activity,"DIGSA; 14 DAT, g ai/ha A-1 12.5, B-5 1066, height 2-8 cm, water volume 140 l/ha",33%
same,% Herbicidal activity,"DIGSA; 14 DAT, g ai/ha A-1 25, B-5 1066, height 2-8 cm, water volume 140 l/ha",33%
same,% Herbicidal activity,"DIGSA; 14 DAT, g ai/ha A-1 50, B-5 1066, height 2-8 cm, water volume 140 l/ha",65%
same,% Herbicidal activity,"DIGSA; 15 DAT, g ai/ha A-1 12.5, B-5 1066, C-10 840, growth stage 13-19, height 2-13 cm, water volume 140 l/ha",68%
same,% Herbicidal activity,"DIGSA; 21 DAT, g ai/ha A-1 12.5, B-5 1066, C-11 655, height 2-8 cm, water volume 140 l/ha",27%
same,% Herbicidal activity,"DIGSA; 21 DAT, g ai/ha A-1 12.5, B-5 1066, height 2-8 cm, water volume 140 l/ha",27%
same,% Herbicidal activity,"DIGSA; 21 DAT, g ai/ha A-1 25, B-5 1066, C-11 655, height 2-8 cm, water volume 140 l/ha",28%
same,% Herbicidal activity,"DIGSA; 21 DAT, g ai/ha A-1 25, B-5 1066, height 2-8 cm, water volume 140 l/ha",28%
same,% Herbicidal activity,"DIGSA; 21 DAT, g ai/ha A-1 50, B-5 1066, C-11 655, height 2-8 cm, water volume 140 l/ha",55%
same,% Herbicidal activity,"DIGSA; 21 DAT, g ai/ha A-1 50, B-5 1066, height 2-8 cm, water volume 140 l/ha",55%
same,% Herbicidal activity,"DIGSA; Example 6, 7 DAT, g ai/ha A-1 12.5, B-5 1066, C-11 400, growth stage 21-22, height 15-20 cm",35%
same,% Herbicidal activity,"DIGSA; Example 6, 21 DAT, g ai/ha A-1 12.5, B-5 1066, C-11 400, growth stage 21-22, height 15-20 cm",35%
same,% Herbicidal activity,"CYPES; g ai/ha A-1 12.5, B-5 1066, C-11 655",20%
same,% Herbicidal activity,"CYPES; g ai/ha A-1 50, B-5 1066, C-11 655",42%
same,% Herbicidal activity,"CYPES; g ai/ha A-1 50, B-5 1066",42%
same,% Herbicidal activity,"DATST; Example 4, 7 DAT, g ai/ha A-1 12.5, B-5 1066",90%
same,% Herbicidal activity,"DATST; Example 6, 21 DAT, g ai/ha A-1 12.5, B-5 1066, C-11 400",90%
same,% Herbicidal activity,"ZEAMX; Example 4, 7 DAT, g ai/ha A-1 18, B-5 1066, height 50-60 cm",85%
same,% Herbicidal activity,"ZEAMX; Example 4, 21 DAT, g ai/ha A-1 12.5, B-5 1066, height 50-60 cm",80%
same,% Herbicidal activity,"ZEAMX; Example 5, 21 DAT, g ai/ha A-1 12.5, B-4 1066, height 50-60 cm",70%
same,% Herbicidal activity,"ZEAMX; Example 6, 7 DAT, g ai/ha A-1 12.5, B-5 1066, C-11 400, height 25-30 cm",40%
same,% Herbicidal activity,"ZEAMX; Example 6, 28 DAT, g ai/ha A-1 12.5, B-5 1066, C-11 400, height 50-60 cm",85%
same,% Herbicidal activity,"ZEAMX; Example 7, 28 DAT, g ai/ha A-1 12.5, B-4 1066, C-11 400, height 50-60 cm",50%
same,% Herbicidal activity,"ZEAMX; Example 8, 28 DAT, g ai/ha A-1 12.5, B-5 1066, C-12 252, height 50-60 cm",85%
same,% Herbicidal activity,"ZEAMX; Example 9, 28 DAT, g ai/ha A-1 12.5, B-4 1066, C-12 252, height 50-60 cm",50%
same,% Herbicidal activity,"ZEAMX; Example 11, 21 DAT, g ai/ha A-1 12.5, B-4 1066, C-4 12.5, height 50-60 cm",70%
same,% Herbicidal activity,"SETVE; Example 4, 21 DAT, g ai/ha A-1 12.5, B-5 1066, height 8-16 cm",65%
same,% Herbicidal activity,"SETVE; Example 6, 7 DAT, g ai/ha A-1 12.5, B-5 1066, C-11 400, height 10-15 cm",75%
same,% Herbicidal activity,"SETVE; Example 6, 21 DAT, g ai/ha A-1 12.5, B-5 1066, C-11 400, height 10-15 cm",55%
same,% Herbicidal activity,"HORVW; Example 4, 21 DAT, g ai/ha A-1 12.5, B-5 1066",60%
same,% Herbicidal activity,"HORVW; Example 5, 7 DAT, g ai/ha A-1 12.5, B-4 1066",60%
same,% Herbicidal activity,"HORVW; Example 6, 28 DAT, g ai/ha A-1 12.5, B-5 1066, C-11 400",60%
same,% Herbicidal activity,"HORVW; Example 7, 28 DAT, g ai/ha A-1 12.5, B-4 1066, C-11 400",90%
same,% Herbicidal activity,"HORVW; Example 8, 21 DAT, g ai/ha A-1 12.5, B-5 1066, C-12 252",80%
same,% Herbicidal activity,"HORVW; Example 9, 21 DAT, g ai/ha A-1 12.5, B-4 1066, C-12 252",80%
same,% Herbicidal activity,"HORVW; Example 10, 21 DAT, g ai/ha A-1 12.5, B-5 1066, C-4 12.5",80%
same,% Herbicidal activity,"HORVW; Example 11, 21 DAT, g ai/ha A-1 12.5, B-4 1066, C-4 12.5",80%
